Assay results reported in patent US4857516A, “Coumaran derivatives and their pharmaceutical use” (Takeda Chemical Industries, Ltd., priority 1986, dated 1989).

Experiments:
[1] = tested on: excitatory behavior induced by FeCl2 in mice; test: Excitatory behavior induced by spinal intrathecal injection of FeCl2 in mice; format: in vivo, mouse; conditions: 100 mg/kg p.o.; for Score (mean behavioral score): 30 min. prior to FeCl2, 0 normal to 5 death; for Percent inhibition (of mean score): vs vehicle p.o.
Experimental: Male Slc:ICP mice (5 weeks) were used. Each group consisted of 10 mice. 5 μl of 50 mM FeCl2 in saline was injected into spinal subarchnoid space betwen the 1st sacral and the 6th lumbar segment, the behavioral responses were observed from 15 min. to 1 hr. after the intrathecal injection of FeCl2 and scored as follows.
Score Behavioral responses
0: normal (no abnormal behavior)
1: vigorously biting lower abdomen or lower extremities
(a) extremely biting lower body with rolling
(b) hyperreactivity and agressive to external stmuli
at least one of above three behavioral changes were observed
4: tonic convulsion or paralysis of lower extremities.
The test compounds (100 mg/kg) were orally administered 30 min. prior to FeCl2 injection.

5-lipoxygenase = target: T1, 5-lipoxygenase (Rattus norvegicus, UniProt P12527); test: Inhibition of 5-lipoxygenase (5-HETE production in RBL-1 cells); format: cell-based
T1 construct: endogenous in cells; host or cells: RBL-1 (rat basophilic leukemia cells)
T1 sequence (P12527 1-673): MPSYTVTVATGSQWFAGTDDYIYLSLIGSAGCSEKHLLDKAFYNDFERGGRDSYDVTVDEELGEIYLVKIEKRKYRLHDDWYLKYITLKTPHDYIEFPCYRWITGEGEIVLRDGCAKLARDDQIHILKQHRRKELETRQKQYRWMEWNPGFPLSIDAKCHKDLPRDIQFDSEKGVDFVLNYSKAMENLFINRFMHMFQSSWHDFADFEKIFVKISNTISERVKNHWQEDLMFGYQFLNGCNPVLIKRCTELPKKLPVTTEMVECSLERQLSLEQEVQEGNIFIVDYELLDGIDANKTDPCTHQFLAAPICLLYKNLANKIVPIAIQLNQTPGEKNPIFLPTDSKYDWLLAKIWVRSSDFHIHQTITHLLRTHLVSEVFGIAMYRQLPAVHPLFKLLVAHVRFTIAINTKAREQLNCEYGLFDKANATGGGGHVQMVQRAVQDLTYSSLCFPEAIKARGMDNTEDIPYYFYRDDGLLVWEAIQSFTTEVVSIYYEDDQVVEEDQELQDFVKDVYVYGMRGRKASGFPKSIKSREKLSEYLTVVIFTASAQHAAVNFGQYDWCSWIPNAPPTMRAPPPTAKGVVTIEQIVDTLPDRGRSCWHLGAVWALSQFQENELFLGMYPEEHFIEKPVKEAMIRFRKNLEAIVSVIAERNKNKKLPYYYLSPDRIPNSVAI
Experimental: 10^7 RBL-1 cells (rat basophilic leukemia cells) were suspended in 0.5 ml of MCM (mast cell medium). […] Then 4 ml of ethanol was added, and the mixture was well shaken and kept at room temperature for 10 min.
The mixture was centrifuged for 10 min. (2000 rpm), and the supernatant was separated. The supernatant obtained was concentrated to dryness under reduced pressure. To the residue 0.5 ml of 60 v/v % aqueous methanol was added. One hundred μl of this solution was subjected to high performance liquid chromatography for quantitative analysis of 5-HETE (5-hydroxyeicosatetraenoic acid). The amount of 5-HETE was determined by measurement of the absorbance at 237 nm with a UV absorption monitor.
The inhibitory effect (IE) of production of 5-HETE is expressed by (1-b/a)×100, wherein a is the peak height or the area corrected with the peak due to the internal standard in the absence of the compound (I) or a pharmaceutically acceptable salt thereof, and b is the peak height or peak area corrected with the peak due to the internal standard in the presence of the compound (I) or a pharmaceutically acceptable salt thereof.

[2] = tested on: lipid peroxide production in rat brain homogenates; test: Inhibitory action on lipid peroxide production in rat brain homogenates; format: biochemical; conditions: 5 v/v % rat brain homogenate, pH 7.4, 1 hour at 37° C.; read-out: Inhibition (IC50) of lipid peroxide production
Experimental: The male SD rat (12 weeks) brain tissue was extracted under anesthesia after depletion. The extracted brain tissue was used as 5 v/v % homogenate in phosphate buffer (pH 7.4). After incubation of the homogenate for 1 hour at 37° C., the peroxide produced was determined by the thiobarbituric acid method according to the method described in Analytical Biochemistry, 95, 551 (1979).
Before incubation, test compounds were added in 5 v/v % homogenate so that their final concentration becomes 10^-5 M. […]

[3] = tested on: neurological deficits in rats with cerebral ischemia; test: Neurological deficits in rats with experimental cerebral ischemia; format: in vivo, rat; conditions: p.o.
Experimental: Male Crj:Wistar rats, that were 7 weeks old at the time of electocauterization of the bilateral vertebral arteries, were used. Electrocauterization of the bilateral vertebral arteries was performed under pentobarbital Na (40 mg/kg, i.p.) anesthesia. Global cerebral ischemia was produced by 20 min. occlusion of both common carotid arteries 24 hr after the permanent electrocauterization of the bilateral vertebral arteries (Pulsinelli W. A. and Brierly J. B., Stroke 10, 267-272 (1979).
The compound of Example 20 was given orally as a single dose immediately after the reperfusion of both carotid arteries.
1; decrease in spontaneous motor activity, piloerection, ptosis, miosis, hyperirritability, slight ataxia
2; moderate to servere ataxia
3; loss of righting reflex, slight convulsions
4; severe convulsions, coma
The median neurological deficit scores of the drug-treated groups were compared with that of saline-treated control. Statistical analysis was done using the Mann-Whitney U-test.

[4] = tested on: neurological deficits caused by spinal cord compression in rats; test: Functional neurologic impairment induced by spinal cord compression in rats; format: in vivo, rat; conditions: 40 mg/kg, p.o.
Excerpt: (§1) Male Jcl:Wistar rats, weighing about 350 g at the time of spinal cord compression were used. A spinal cord injury was produced in rats by compressing the spinal cord with a stainless screw of 2.8 mm length and 2 mm diameter at thoracic 11 (T11) level under pentobarbital anesthesia. On the day of the operation, the screw was placed so that the end was just above the subarachnoid membrane of the spinal cord.
(§2) On the following day, the screw was completely tightened to compress the spinal cord without penetrating the subarachnoid membrane. After compression of the spinal cord for 60 min., the screw was removed. Test compounds were given orally 5 min. after the removal of screw.
0; flaccid paralysis, no movement of hind limbs, no response to pinching of tail with foreceps (i.e. movement of fore limbs, biting foreceps, vocalization)
1; no movement of hind limbs, but responds to pinching of tail with foreceps
2; uncoordinated movement (loss of coordination between limbs), but can not support own weight
3; movement with an impairment (general coordination between limbs), but can not support own weight
4; walking with a slight ataxia of the hind limbs, but can support own weight
(§3) The median neurological score of the drug-treated groups were compared with that saline-teated control group. Statistical analysis was done using the Mann-Whitney U-test. The incidence of rats showing urinary incontinence was also compared by the .chi.^2 -test.

[5] = tested on: urinary incontinence in rats with spinal cord compression; test: Incidence of rats showing urinary incontinence (spinal cord compression); format: in vivo, rat; set-up: Incidence of rats showing urinary incontinence: unit not given here; conditions: 40 mg/kg, p.o.
Excerpt: as §1, §2, §3

[6] = day 3, Ex. 7 *p < 0.05, Ex. 20 **p < 0.01

Compound: Cc1c(C)c2c(c(C)c1O)C(c1ccc(Br)cc1)C(C)(C)O2 (centres unmarked) [Example 11]
- Score (mean behavioral score) [1]: 0.7
- Percent inhibition (of mean score) [1]: 84%

Compound: Cc1c(C)c2c(c(C)c1O)C(c1ccc(Cl)cc1)C(C)(C)O2 (centres unmarked) [Example 13]
- Score (mean behavioral score) [1]: 0.7
- Percent inhibition (of mean score) [1]: 83%

Compound: Cc1c(C)c2c(c(C)c1O)C(c1ccc(C(C)C)cc1)C(C)(C)O2 (centres unmarked) [Example 20, 5-hydroxy-2,2,4,6,7-pentamethyl-3-(4-isopropylphenyl)-2,3-dihydrobenzofuran]
- inhibition at 1 µM (5-lipoxygenase; 10^-6 M): 100%
- inhibition at 0.1 µM (5-lipoxygenase; 10^-7 M): 42%
- inhibition at 0.01 µM (5-lipoxygenase; 10^-8 M): 36%
- IC50 [2]: 0.025 µM
- neurological deficit score (median value) ([3]; 10 mg/kg, day 1, 0 normal to 5 death): 2
- neurological deficit score (median value) ([3]; 10 mg/kg, day 2): 2
- neurological deficit score (median value) ([3]; 10 mg/kg, day 3, *p < 0.05): 1.5
- neurological deficit score (median value) ([3]; 10 mg/kg, day 5, **p < 0.01): 1
- neurological deficit score (median value) ([3]; 10 mg/kg, day 7, *p < 0.05): 1
- neurological deficit score (median value) ([3]; 10 mg/kg, day 10, **p < 0.01): 0
- neurological deficit score (median value) ([3]; 10 mg/kg, day 14): 0
- neurological deficit score (median value) ([3]; 40 mg/kg, day 1, 0 normal to 5 death): 2
- neurological deficit score (median value) ([3]; 40 mg/kg, day 2): 2
- neurological deficit score (median value) ([3]; 40 mg/kg, day 3, **p < 0.01): 1
- neurological deficit score (median value) ([3]; 40 mg/kg, day 5, **p < 0.01): 1
- neurological deficit score (median value) ([3]; 40 mg/kg, day 7, *p < 0.05): 1
- neurological deficit score (median value) ([3]; 40 mg/kg, day 10, *p < 0.05): 0
- neurological deficits caused by transient cerebral ischemia (in words) ([3]; 10 and 40 mg/kg): significantly ameliorated the neurological deficits
- neurological score (median value) ([4]; day 1, 0 flaccid paralysis to 5 normal gait, Ex. 20 **p < 0.01): 2
- neurological score (median value) [4, 6]: 3
- neurological score (median value) ([4]; day 7, Ex. 20 **p < 0.01): 4
- neurological score (median value) ([4]; day 14, Ex. 20 *p < 0.05): 4
- neurological impairment caused by spinal cord compression (in words) ([4]; Table 4(III)): ameliorated the neurological impairment
- Incidence of rats showing urinary incontinence ([5]; day 1, Ex. 20 **p < 0.01): 0
- Incidence of rats showing urinary incontinence ([5]; day 2, Ex. 20 **p < 0.01): 0
- Incidence of rats showing urinary incontinence [5, 6]: 0
- Incidence of rats showing urinary incontinence ([5]; day 5, Ex. 20 **p < 0.01): 0
- Incidence of rats showing urinary incontinence ([5]; day 7, Ex. 7 *p < 0.05): 7.1
- Incidence of rats showing urinary incontinence ([5]; day 10): 7.1
- Incidence of rats showing urinary incontinence ([5]; day 14): 7.1
- incidence of urinary incontinence (in words) ([5]; Table 4(IV)): reduced the incidence of urinary incontinence
